Experimental data taken from paper PMC12530851, “Design, synthesis, and apoptotic antiproliferative activity of novel dihydropyrimidine-5-carbonitrile/1,2,4-oxadiazole hybrids as dual EGFR/VEGFR-2 inhibitors endowed with antioxidant activity” (RSC Advances, 2025).

What was measured:
[1] = Cell viability assay (MTT) on normal MCF-10A cells; assay type: cell-based; conditions: human, MCF-10A mammary gland epithelial cells (normal cell line), MCF-10A normal cells, four-day incubation
Experimental: The impact of novel compounds 10a–l on the viability of a normal human cell line, specifically human mammary gland epithelial cells (MCF-10A), was assessed to ascertain the safety of the newly synthesized compounds. The MTT test was employed to assess the cell viability of the novel compounds after a four-day incubation with MCF-10A cells.[29,37] Refer to Appendix A for more experimental details.
The effect of new compounds 10a–l on the viability of a normal human cell line, namely human mammary gland epithelial cells (MCF-10A), was evaluated to determine the safety of the newly synthesized compounds.
4.2. Biological evaluation
4.2.1 Cell Viability assay (MTT assay)
MTT assay was performed to investigate the effect of the synthesized compounds on mammary epithelial cells (MCF-10A). The cells were propagated in medium consisting of Ham's F-12 medium/ Dulbecco's modified Eagle's medium (DMEM) (1:1) supplemented with 10% foetal calf serum, 2 mM glutamine, insulin (10 μg/mL), hydrocortisone (500 ng/mL) and epidermal growth factor (20 ng/mL). Trypsin ethylenediamine tetra acetic acid (EDTA) was used to passage the cells after every 2-3 days. 96-well flat-bottomed cell culture plates were used to seed the cells at a density of 10^4 cells mL-1. The medium was aspirated from all the wells of culture plates after 24 h followed by the addition of synthesized compounds (in 200 μL medium to yield a final concentration of 0.1% (v/v) dimethyl sulfoxide) into individual wells of the plates. Four wells were designated to a single compound. The plates were allowed to incubate at 37°C for 96 h. Afterwards, the medium was aspirated and 3-[4,5-dimethylthiazol-2-yl]-2,5-diphenyltetrazolium bromide (MTT) (0.4 mg/mL) in medium was added to each well and subsequently incubated for 3 h. The medium was aspirated and 150 μL dimethyl sulfoxide (DMSO) was added to each well. The plates were vortexed followed by the measurement of absorbance at 540 nm on a microplate reader. […]

A-549 (lung cancer) = test: Antiproliferative assay, A-549; assay type: cell-based; conditions: Homo sapiens, A549; A-549 lung cancer cells; read-out: Antiproliferative activity IC50 ± SEM, A-549
Source text: (§1) The dose–response experiments established the IC50 values for the new compounds. The given findings were obtained from at least two distinct studies, each comprising three repeats per concentration. Appendix A (SI File) provides experimental details.[38,39]
(§2) The MTT assay[43] was utilized to assess the antiproliferative effects of compounds 10a–l on four human cancer cell lines: HT-29 (colon cancer), Panc-1 (pancreatic cancer), A-549 (lung cancer), and MCF-7 (breast cancer). […]
(§3) 4.2.2. Assay for antiproliferative effect
(§4) To explore the antiproliferative potential of compounds propidium iodide fluorescence assay was performed using different cell lines such as Panc-1 (pancreas cancer cell line), MCF-7 (breast cancer cell line), HT-29 (colon cancer cell line) and A-549 (epithelial cancer cell line), respectively. To calculate the total nuclear DNA, a fluorescent dye (propidium iodide, PI) is used which can attach to the DNA, thus offering a quick and precise technique. PI cannot pass through the cell membrane and its signal intensity can be considered as directly proportional to quantity of cellular DNA. Cells whose cell membranes are damaged or have changed permeability are counted as dead ones. The assay was performed by seeding the cells of different cell lines at a density of 3000-7500 cells/well (in 200μl medium) in culture plates followed by incubation for 24h at 37 °C in humidified 5%CO2/95% air atmospheric conditions. The medium was removed; the compounds were added to the plates at 10 μM concentrations (in 0.1% DMSO) in triplicates, followed by incubation for 48h. DMSO (0.1%) was used as control. After incubation, medium was removed followed by the addition of PI (25 μl, 50μg/mL in water/medium) to each well of the plates. At - 80 °C, the plates were allowed to freeze for 24 h, followed by thawing at 25 °C. A fluorometer (Polar-Star BMG Tech) was used to record the readings at excitation and emission wavelengths of 530 and 620 nm for each well. The percentage cytotoxicity of compounds was calculated using […]
(§5) Where ATC= Absorbance of treated cells and AC= Absorbance of control. Erlotinib was used as positive control in the assay. […]

MCF-7 (breast cancer) = test: Antiproliferative assay, MCF-7; assay type: cell-based, human; conditions: Homo sapiens, MCF7; MCF-7 breast cancer cells; read-out: Antiproliferative activity IC50 ± SEM, MCF-7
Source text: as §1, §2, §3, §4, §5

[2] = tested on: Panc-1 (pancreatic cancer); test: Antiproliferative assay, Panc-1; assay type: cell-based; conditions: Homo sapiens; Panc-1 pancreatic cancer cells; read-out: Antiproliferative activity IC50 ± SEM, Panc-1
Source text: as §1, §2, §3, §4, §5

[3] = tested on: four human cancer cell lines (A-549, MCF-7, Panc-1, HT-29); test: Antiproliferative assay, average over four cancer cell lines; assay type: cell-based; conditions: for GI50: Homo sapiens, average IC50 across A-549, MCF-7, Panc-1, HT-29; for Reduction in antiproliferative potency relative to 10k (GI50): less potent than 10k
Experimental: The given findings were obtained from at least two distinct studies, each comprising three repeats per concentration. Appendix A (SI File) provides experimental details.[38,39] […]
as §3
To explore the antiproliferative potential of compounds propidium iodide fluorescence assay was performed using different cell lines such as Panc-1 (pancreas cancer cell line), MCF-7 (breast […]
respectively. To calculate the total nuclear DNA, a fluorescent dye (propidium iodide, PI) is used which can attach to the DNA, thus offering a quick and precise technique. PI cannot pass through the cell membrane and its signal intensity can be considered as directly proportional to quantity of cellular DNA. Cells whose cell membranes are damaged or have changed permeability are counted as dead ones. The assay was performed by seeding the cells of different cell lines at a density of 3000-7500 cells/well (in 200μl medium) in culture plates followed by incubation for 24h at 37 °C […]
The medium was removed; the compounds were added to the plates at 10 μM concentrations (in 0.1% DMSO) in triplicates, followed by incubation for 48h. DMSO (0.1%) was used as control. After incubation, medium was removed followed by the addition of PI (25 μl, 50μg/mL in water/medium) to each well of the plates. At - 80 °C, the plates were allowed to freeze for 24 h, followed by thawing at 25 °C. A fluorometer (Polar-Star BMG Tech) was used to record the readings at excitation and emission wavelengths of 530 and 620 nm for each well. The percentage cytotoxicity of compounds was calculated using […]
Where ATC= Absorbance of treated cells and AC= Absorbance of control. […]
positive control in the assay. […]

HT-29 (colon cancer) = test: Antiproliferative assay, HT-29; assay type: cell-based; conditions: Homo sapiens; HT-29 colon cancer cells; read-out: Antiproliferative activity IC50 ± SEM, HT-29
Source text: as §1, §2, §3, §4, §5

Structure (SMILES) | viability at 96 h, 50 µM [1] [%] | IC50 (A-549 (lung cancer)) [nM] | IC50 (MCF-7 (breast cancer)) [nM] | IC50 [2] [nM] | GI50 [3] [nM] | IC50 (HT-29 (colon cancer)) [nM] | Reduction in antiproliferative potency relative to 10k (GI50) [3] [fold]
N#Cc1c(-c2ccccc2)nc(SCc2nc(-c3ccccc3)no2)[nH]c1=O [Compound 10a, 2-(((3-Phenyl-1,2,4-oxadiazol-5-yl)methyl)thio)-6-oxo-4-phenyl-1,6-dihydropyrimidine-5-carbonitrile] | 91 | 44 ± 3 | 40 ± 3 | 42 ± 3 | 43 | 45 ± 3 | –
N#Cc1c(-c2ccccc2)nc(SCc2nc(-c3ccc(Cl)cc3)no2)[nH]c1=O [Compound 10b, 2-(((3-(4-Chlorophenyl)-1,2,4-oxadiazol-5-yl)methyl)thio)-6-oxo-4-phenyl-1,6-dihydropyrimidine-5-carbonitrile] | 90 | 65 ± 5 | 61 ± 5 | 61 ± 5 | 63 | 66 ± 5 | 2.9
COc1ccc(-c2noc(CSc3nc(-c4ccccc4)c(C#N)c(=O)[nH]3)n2)cc1 [Compound 10c, 2-(((3-(4-Methoxyphenyl)-1,2,4-oxadiazol-5-yl)methyl)thio)-6-oxo-4-phenyl-1,6-dihydropyrimidine-5-carbonitrile] | 92 | 49 ± 3 | 44 ± 3 | 44 ± 3 | 47 | 51 ± 3 | –
N#Cc1c(-c2ccncc2)nc(SCc2nc(-c3ccccc3)no2)[nH]c1=O [Compound 10d, 2-(((3-Phenyl-1,2,4-oxadiazol-5-yl)methyl)thio)-6-oxo-4-(pyridin-4-yl)-1,6-dihydropyrimidine-5-carbonitrile] | 89 | 56 ± 4 | 51 ± 4 | 53 ± 4 | 54 | 57 ± 4 | –
COc1ccc(-c2noc(CSc3nc(-c4ccncc4)c(C#N)c(=O)[nH]3)n2)cc1 [Compound 10f, 2-(((3-(4-Methoxyphenyl)-1,2,4-oxadiazol-5-yl)methyl)thio)-6-oxo-4-(pyridin-4-yl)-1,6-dihydropyrimidine-5-carbonitrile] | 91 | 52 ± 4 | 49 ± 3 | 50 ± 4 | 51 | 54 ± 4 | –
N#Cc1c(-c2ccc(Cl)cc2)nc(SCc2nc(-c3ccccc3)no2)[nH]c1=O [Compound 10g, 2-(((3-Phenyl-1,2,4-oxadiazol-5-yl)methyl)thio)-4-(4-chlorophenyl)-6-oxo-1,6-dihydropyrimidine-5-carbonitrile] | 90 | 39 ± 2 | 35 ± 2 | 37 ± 2 | 38 | 40 ± 2 | –
COc1ccc(-c2nc(SCc3nc(-c4ccccc4)no3)[nH]c(=O)c2C#N)cc1 [Compound 10j, 2-(((3-Phenyl-1,2,4-oxadiazol-5-yl)methyl)thio)-4-(4-methoxyphenyl)-6-oxo-1,6-dihydropyrimidine-5-carbonitrile] | 89 | 69 ± 5 | 65 ± 5 | 68 ± 5 | 68 | 70 ± 5 | 3
C#Cc1cccc(Nc2ncnc3cc(OCCOC)c(OCCOC)cc23)c1 [Erlotinib, reference compound] | – | 30 ± 3 | 40 ± 3 | 30 ± 3 | – | 30 ± 3 | –
